Where two headings read alike, the source gives them in different places.
Key:
[1] = biological target: T1, prenylated protein methyltransferase (PPMTase) (Rattus norvegicus, UniProt Q9WVM4); assay: Methylation of AFC by PPMTase in rat cerebellar synaptosomal membranes; type: biochemical; conditions: for IC50: synaptosomal membranes, FIG. 2, read-out: IC50 (concentration resulting in 50% inhibition of AFC methylation)
T1 construct: from tissue; host or cells: rat cerebellum, synaptosomal membranes
Description: As a substrate for methylation served AFC and as the donor of methyl served [methyl-H^3] labelled AdoMet. As a source of the enzyme prenylated protein methyltransferase (PPTMase) served rat cerebellar membranes which are known to be membranes enriched with this enzyme (Ben-Baruch, Biochem. Biophys. Res. Commun., 195, 282-288. (1993)).
(§1) Charles River adult male rats were used for preparation of cerebellar synaptosomal membranes. Cerebella were removed after decapitation and homogenized in 0.32M sucrose containing 50 mM Tris-HCl pH 7.4, 3 mM EDTA, 1 mM EGTA, 5 unit/ml aprotinin and 5 μg/ml pepstatin (buffer A) to yield 10% (w/v) homogenates. Nuclear fractions were obtained by 10 min. 600×g centrifugation and synaptosomal fractions were obtained by 20 mins. 14,500×g centrifugation. Membranes of the various cell types used were prepared in the above buffer A by a 60 min. spin at 100,000×g.
Pellets were resuspended in the homogenization buffer and stored at −70° C. Methylation assays were performed at 37° C. in 50 mM Tris-HCl buffer pH 7.4, using 75-125 μg protein, 25 μM [methyl-^3H]AdoMet ([…] in DMSO) in a total volume of 50 μl. DMSO concentration in all assays was 4%.
(§2) Reactions were terminated after 10 min. by adding 500 μl chloroform methanol (1:1) and a subsequent addition of 250 μl H2O, mixing them and subsequently by phase separation. A portion of 125 μl of the chloroform phase was dried down at 40° C. and 200 μl of 1M NaOH/1% SDS solution were added thereto. The [^3H]methanol thus formed was counted by the vapor phase equilibrium method as described previously (Hakiai et al., Cell Mol. Neurobiol., 11, 415-431, (1991); Lenner et al., Cell Mol. Neurbiol., 12, 333 and 3351, (1992); Ben-Baruch et al., Biochem. Biophy. Res. Commun., 195, 282-288, (1993)). Typical background counts (i.e. counts of methylation with no AFC added) were 50-100 cpm while typical methylation counts with AFC as a substrate yielded 500 to 6000 cpm. Assays were performed in triplicate and background counts subtracted. Methylation of endogenous substrates, in intact cells, and [α-^32P] GTP-blot overlay assays and gel electrophoreses were performed as detailed previously (Hakiai et al., supra (1991); Lenner et al., supra (1993)).

PPMTase [2] = biological target: T2, PPMTase (Mus musculus, UniProt Q9EQK7); assay: PPMTase activity (AFC methylation) in membranes of B16F10 melanoma cells; type: biochemical; conditions: for PPMTase activity: with inhibitor
T2 construct: PPMTase activity in membranes obtained from four different cell lines as determined by methylation of AFC; endogenous in cells; host or cells: B16F10 melanoma cell membranes
Experimental: as §1
(§3) Pellets were resuspended in the homogenization buffer and stored at −70° C. Methylation assays were performed at 37° C. in 50 mM Tris-HCl buffer pH 7.4, using 75-125 μg protein, 25 μM [methyl-^3H]AdoMet ([…]) as a methyl donor and 150 μM AFC as a methylation substrate (prepared as a stock solution in DMSO) in a total volume of 50 μl. DMSO concentration in all assays was 4%.
as §2
(§4) The B16F10 melanoma cells were grown in RPMI 1640/10% fetal calf serum, 2 mM glutamine and antibiotics as for the HEC1A cells, at the density of 1×10^4 cells/well. All four types of cells were used for determining the PPMTase activity using AFC as the substrate as described above for synaptosomal membrane preparation. Usually 150 μg membranal proteins were used in the assay for a 10 min. incubation time.

PPMTase [3] = biological target: T3, PPMTase (Rattus norvegicus, UniProt Q9WVM4); assay: PPMTase activity (AFC methylation) in membranes of ras-transformed rat1 cells; type: biochemical; conditions: ras-transformed rat fibroblast membranes; for PPMTase activity: with inhibitor
T3 construct: PPMTase activity in membranes obtained from four different cell lines as determined by methylation of AFC; endogenous in cells; host or cells: ras-transformed rat1 (EJ) cell membranes
Experimental: as §1, §3, §2, §4

PPMTase [4] = biological target: T3, PPMTase; assay: PPMTase activity (AFC methylation) in membranes of non-transformed Rat-1 cells; type: biochemical; conditions: non-transformed Rat-1 membranes; for PPMTase activity: with inhibitor
Experimental: as §1, §3, §2, §4

[5] = test system: PPMTase activity in intact HEC1A, ras-transformed rat1 and melanoma cells; assay: Methylation of endogenous 21-24 KDa GTP-binding proteins in intact cells ([methyl-3H]methionine labelling); type: cell-based; conditions: 100 μM, FIG. 3
Experimental: as §2
HEC1A, rail, ras-transformed rail and B16F10 melanoma cells were also used for metabolic labelling of endogenous proteins with 100-300 μCi/ml [methyl-^3H]methionine which was also indicative of PPMTase activity. […]

[6] = Table II, given as range, read-out: Ki
[7] = from FIG. 2 curves, 100 μM AFC, read-out: inhibition constant (Ki)

T3 sequence (Q9WVM4 whole entry): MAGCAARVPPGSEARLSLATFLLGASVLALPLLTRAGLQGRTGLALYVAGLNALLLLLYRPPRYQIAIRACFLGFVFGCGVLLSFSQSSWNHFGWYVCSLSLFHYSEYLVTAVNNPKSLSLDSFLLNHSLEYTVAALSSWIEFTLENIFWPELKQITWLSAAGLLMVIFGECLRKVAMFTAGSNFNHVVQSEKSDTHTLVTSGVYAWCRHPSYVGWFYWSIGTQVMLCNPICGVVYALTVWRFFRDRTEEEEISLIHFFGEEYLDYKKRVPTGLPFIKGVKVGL
T1 sequence (Q9WVM4 whole entry): as above
T2 sequence (Q9EQK7 whole entry): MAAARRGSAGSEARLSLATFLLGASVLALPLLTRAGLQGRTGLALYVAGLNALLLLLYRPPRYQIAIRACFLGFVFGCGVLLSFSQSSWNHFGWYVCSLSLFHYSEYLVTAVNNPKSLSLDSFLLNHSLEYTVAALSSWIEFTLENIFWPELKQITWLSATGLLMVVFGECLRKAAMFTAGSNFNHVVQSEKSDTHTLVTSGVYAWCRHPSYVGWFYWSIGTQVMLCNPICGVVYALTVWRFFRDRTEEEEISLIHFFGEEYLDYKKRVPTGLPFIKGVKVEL

## CC(C)=CCC/C(C)=C/CC/C(C)=C/CSCC(=O)O [FTA, S-trans, trans-farnesylthioacetic acid, reference compound]
[1]; 100 μM AFC + 200 μM inhibitor
  [3H-methyl]ester formed: 320 ± 50 cpm/assay
[1]; 100 μM AFC
  IC50: 23 µM
[1]; [6]
  Ki: 5.7 to 10.5 µM
[1]; [7]
  Ki: 4 µM
PPMTase [2]
  % Inhibition: 38%
  PPMTase activity: 1.3 pmol/min/mg protein
PPMTase [3]
  % Inhibition: 72%
  PPMTase activity: 1.9 pmol/min/mg protein
PPMTase [4]
  % Inhibition: 66%
  PPMTase activity: 0.9 pmol/min/mg protein
[5]
  inhibition of methylation of endogenous 21-24 KDa proteins: able to inhibit

## CC(C)=CCC/C(C)=C/CC/C(C)=C/CSc1ccccc1C(=O)O [FTS, (3,7,11-trimethyl-dodeca-2,6,10-trienyl)-2-thiobenzoic acid]
[1]
  serves as substrate for PPMTase methylation: does not serve as a substrate
[1]; 100 μM AFC + 200 μM inhibitor
  [3H-methyl]ester formed: 280 ± 30 cpm/assay
[1]; 100 μM AFC
  IC50: 10 µM
[1]; 200 μM of the substance alone as substrate
  [3H-methyl]ester formed: 30 ± 10 cpm/assay
[1]; [6]
  Ki: 1.5 to 4.2 µM
[1]; [7]
  Ki: 1.5 µM
PPMTase [2]
  % Inhibition: 50%
  PPMTase activity: 1.7 pmol/min/mg protein
PPMTase [3]
  % Inhibition: 73%
  PPMTase activity: 1.8 pmol/min/mg protein
PPMTase [4]
  % Inhibition: 45%
  PPMTase activity: 1.5 pmol/min/mg protein
[5]
  inhibition of methylation of endogenous 21-24 KDa proteins: able to inhibit
